The record followed here is US9090600B2, “Fungicidal 4-substituted-3-{phenyl[(heterocyclylmethoxy)imino]methyl}-1,2,4-oxadizol-5(4H)-one derivatives” (BAYER INTELLECTUAL PROPERTY GMBH, priority 2011, dated 2015).

Where two headings read alike, the source gives them in different places. Marks after values point to notes of the source that are not given here.

Data set [1] has as its system Phytophthora infestans. It counts as in vivo. The note with it: tomato, preventive spray, 100 ppm of active ingredient, evaluated 7 days after inoculation.
Another data set has as its system Plasmopara viticola. The data set can be described thus: Plasmopara test (grapevines)/preventive. It is filed as in vivo. Conditions: preventive spray, 10 ppm of active ingredient, evaluated 6 days after inoculation. As to the method: Solvent: 24.5 parts by weight of acetone • 24.5 parts by weight of dimethylacetamide
Emulsifier: 1 part by weight of alkylaryl polyglycol ether
To produce a suitable preparation of active compound, 1 part by weight of active compound is mixed with the stated amounts of solvent and emulsifier, and the concentrate is diluted with water to the desired concentration.
To test for preventive activity, young plants are sprayed with the preparation of active compound at the stated rate of application. After the spray coating has dried on, the plants are inoculated with an aqueous spore suspension of Plasmopara viticola and then remain for 1 day in an incubation cabinet at approximately 20° C. and a relative atmospheric humidity of 100%. The plant is subsequently placed for 4 days in a greenhouse at approximately 21° C. and a relative atmospheric humidity of approximately 90%. The plants are then misted and placed for 1 day in an incubation cabinet.
The test is evaluated 6 days after the inoculation. 0% means an efficacy which corresponds to that of the untreated control, while an efficacy of 100% means that no disease is observed.

The conditions of data set [2]: pH 2.7.
Data set [3] relates to Phytophthora infestans. It counts as in vivo. Conditions: tomato plants, spray, 500 ppm, grading 5 days after contamination.
Data set [4] has as its system Mycosphaerella graminicola. The data set can be described thus: In vivo test on Mycosphaerella graminicola (wheat leaf spot). The note with it: wheat plants, spray, 500 ppm, grading 21 to 28 days after contamination. As to the method: The active ingredients tested are prepared by homogenization in a mixture of acetone/tween/DMSO, then diluted with water to obtain the desired active material concentration.
Wheat plants (Scipion variety), sown on a 50/50 peat soil-pozzolana substrate in starter cups and grown at 22° C. (12 h)/20° C. (12 h), are treated at the 1-leaf stage (10 cm tall) by spraying with the aqueous suspension described above. Plants, used as controls, are treated with an aqueous solution not containing the active material.
After 24 hours, the plants are contaminated by spraying them with an aqueous suspension of cryopreserved Mycosphaerella graminicola spores (500.000 spores per ml). The contaminated wheat plants are incubated for 72 hours at 18° C. and at 100% relative humidity, and then for 21 to 28 days at 90% relative humidity.
Grading (% of efficacy) is carried out 21 to 28 days after the contamination, in comparison with the control plants.
(§1) Under these conditions, good (at least 70%) or total protection is observed at a dose of 500 ppm with the following compounds: […]

In another data set the test system is Puccinia recondita. The data set can be described thus: In vivo test on Puccinia recondita (brown rust). Conditions: wheat plants, spray, 500 ppm, grading 10 days after contamination. As to the method:
The active ingredients tested are prepared by homogenization in a mixture of acetone/tween/DMSO, then diluted with water to obtain the desired active material.
Wheat plants (Scipion variety) sown on 50/50 peat soil-pozzolana substrate in starter cups and grown at 22° C. (12 h)/20° C. (12 h), are treated at the 1-leaf stage (10 cm tall) by spraying with the aqueous suspension described above.
Plants, used as controls, are treated with an aqueous solution not containing the active material. After 24 hours, the plants are contaminated by spraying the leaves with an aqueous suspension of Puccinia recondite spores (100.000 spores per ml). The spores are collected from a 10-day-old contaminated wheat and are suspended in water containing 2.5 ml/l of tween 80 10%. The contaminated wheat plants are incubated for 24 hours at 20° C. and at 100% relative humidity, and then for 10 days at 20° C. and at 70% relative humidity. Grading is carried out 10 days after the contamination, in comparison with the control plants.
as §1

The LogP is a log measure of how a compound divides between an organic and an aqueous phase. As to `CCCCCCC(=O)Nc1cccc(CO/N=C(/c2ccccc2)c2noc(=O)n2C)n1` [Example 8], the Eff. % amounted to 98% with Phytophthora infestans [1], 99% in the data set with Plasmopara viticola and 100% in the data set on Phytophthora infestans [3]. Moreover, the LogP in data set [2] is 4.3 [a].
As for `Cn1c(/C(=N\OCc2cccc(NC(=O)OCC3CCCC3)n2)c2ccccc2)noc1=O` [Example 16], the Eff. % stood at 98% with Phytophthora infestans [1] and 94% with Plasmopara viticola. Besides, in data set [2], the LogP was 4.53 [a].
The matching figures for `Cn1c(/C(=N\OCc2cccc(NC(=O)c3cccc(F)c3)n2)c2ccccc2)noc1=O` [Example 17]: 98%, 94% and 3.69 [a].
For `Cn1c(/C(=N\OCc2csc(NC(=O)c3cccc(F)c3)n2)c2ccccc2)noc1=O` [Example 20] the same measures were 95%, 94% and 3.6 [a].
On to `Cc1cccc(/C(=N/OCc2cccc(N)n2)c2noc(=O)n2C)c1` [Example 30], for which the values for the Eff. % (in data set [4]; in the data set with Phytophthora infestans [3]) were 86% and 100%, respectively. The LogP in data set [2] is 1.45 [a].
The matching figures for `Cn1c(/C(=N\OCc2csc(NC(=O)c3ccccc3Cl)n2)c2ccccc2)noc1=O` [Example 57]: 79%, 85% and 3.46 [a].
As to `Cn1c(/C(=N\OCc2cccc(NC(=O)CCCl)n2)c2ccccc2)noc1=O` [Example 63], the Eff. % was 75% in the data set on Puccinia recondita and 100% in the data set with Phytophthora infestans [3]. Moreover, in data set [2], the log partition coefficient (LogP) was 3.02 [a].
`Cn1c(/C(=N\OCc2cccc(NC(=O)CCCCBr)n2)c2ccccc2)noc1=O` [Example 73]: the Eff. % is on record as 81% with Puccinia recondita and 100% with Phytophthora infestans [3]. For the same compound, in data set [2], the LogP was 3.59 [a].
For the compound `Cn1c(/C(=N\OCc2cccc(NCCc3ccccc3)n2)c2ccccc2)noc1=O` [Example 74], the Eff. % came out at 95% in the data set on Phytophthora infestans [1] and 94% in the data set with Plasmopara viticola. Further, in data set [2], the LogP was 2.78 [a].
Consider `Cn1c(/C(=N\OCc2cccc(NC(=O)CCC3CCCCC3)n2)c2ccccc2)noc1=O` [Example 77], for which the Eff. % in data set [4] came to 71%; with Phytophthora infestans [3] it was 100%. For the same compound, in data set [2], the LogP is 4.73 [a].
For the compound `CCn1c(/C(=N\OCc2cccc(NC(=O)Cc3ccc(OC)cc3)n2)c2ccccc2)noc1=O` [Example 88], the Eff. % in the data set on Puccinia recondita stood at 78%; in the data set with Phytophthora infestans [3] it was 98%. Besides, the LogP in data set [2] was 3.7 [a].
Turning to `C#CCCOC(=O)Nc1cccc(CO/N=C(/c2ccccc2)c2noc(=O)n2CC)n1` [Example 104], the Eff. % amounted to 93% with Phytophthora infestans [1] and 100% in the data set on Plasmopara viticola. Besides, the LogP in data set [2] is 3.51 [a].
For the compound `COc1cccc(/C(=N/OCc2cccc(N)n2)c2noc(=O)n2C)c1` [Example 108], the Eff. % in data set [4] turned out to be 71%; in the data set on Phytophthora infestans [3], 100%. The LogP in data set [2] was 1.32 [a].
Regarding `CCC(C)(C)OC(=O)Nc1cccc(CO/N=C(/c2ccccc2)c2noc(=O)n2C)n1` [Example 120], the values for the Eff. % in the data set with Plasmopara viticola, in the data set on Puccinia recondita and with Phytophthora infestans [3] were 84%, 98% and 100%, respectively. Also, the LogP in data set [2] is 1.99 [a].
For `COc1cccc(/C(=N/OCc2cccc(NC(=O)OC(C)(C)C)n2)c2noc(=O)n2C)c1` [Example 131], the Eff. % in the data set on Puccinia recondita is 81%; in the data set with Phytophthora infestans [3] it was 100%. In addition, the LogP in data set [2] was 3.99 [a].
As to `Cn1c(/C(=N\OCc2cccc(NC/C=N/OCc3ccccc3)n2)c2ccccc2)noc1=O` [Example 136], the values for the Eff. % in the data set with Phytophthora infestans [1] and with Plasmopara viticola were 95% and 75%, respectively. Further, the log partition coefficient (LogP) in data set [2] was 3.35 [a].
Take `Cn1c(/C(=N\OCc2cccc(NC(=O)C(C)(C)C)n2)c2ccccc2)noc1=O` [Example 148]: the Eff. % came to 97% in the data set on Phytophthora infestans [1], 100% in the data set on Plasmopara viticola and 100% with Phytophthora infestans [3]. The LogP in data set [2] was 3.48 [a].
Consider `CCCCCCNc1cccc(CO/N=C(/c2ccccc2)c2noc(=O)n2C)n1` [Example 163], for which the Eff. % in the data set on Phytophthora infestans [1] came out at 95%; with Plasmopara viticola, 96%. Moreover, in data set [2], the LogP is 2.64 [a].
In the case of `COc1ccc(/C(=N/OCc2cccc(NC(=O)C(F)(F)F)n2)c2noc(=O)n2C)cc1` [Example 191], the Eff. % is 89% in the data set with Puccinia recondita and 95% in the data set on Phytophthora infestans [3]. The LogP in data set [2] was 3.37 [a].
Take `CCCCCC(=O)Nc1nc(CO/N=C(/c2ccccc2)c2noc(=O)n2C)cs1` [Example 198]: the results for the Eff. % in the data set with Phytophthora infestans [1] and with Plasmopara viticola were 95% and 100%, respectively. The LogP in data set [2] is 3.76 [a].
Take `CCCCOC(=O)Nc1cccc(CO/N=C(/c2cccc(C)c2)c2noc(=O)n2C)n1` [Example 215]: the Eff. % was 81% with Puccinia recondita and 98% with Phytophthora infestans [3]. In addition, the LogP in data set [2] is 4.36 [a].
For the compound `Cc1cccc(/C(=N/OCc2cccc(NC(=O)OC(C)CC(C)C)n2)c2noc(=O)n2C)c1` (stereo not drawn) [Example 223], the Eff. % in data set [4] was 80%. In data set [2], the LogP is 5.05 [a].
In the case of `CC(C)C(C)OC(=O)Nc1cccc(CO/N=C(/c2ccccc2)c2noc(=O)n2C)n1` (stereo not drawn) [Example 292], the results for the Eff. % with Plasmopara viticola, in the data set on Puccinia recondita and with Phytophthora infestans [3] were 90%, 75% and 99%, respectively. In addition, the LogP in data set [2] is 4.27 [a].
For `C#CC(C)(C)OC(=O)Nc1cccc(CO/N=C(/c2ccccc2)c2noc(=O)n2C)n1` [Example 317] the same measures were 91%, 81%, 98% and 3.6 [a].
With `Cn1c(/C(=N\OCc2cccc(NC(=O)CCc3ccccc3)n2)c2ccc(F)cc2)noc1=O` [Example 324], the Eff. % worked out at 75% in the data set on Puccinia recondita and 94% in the data set with Phytophthora infestans [3]. In addition, the LogP in data set [2] is 3.87 [a].
Take `COc1cccc(/C(=N/OCc2cccc(NC(=O)OCCc3ccccc3)n2)c2noc(=O)n2C)c1` [Example 325]: the results for the Eff. % in the data set on Plasmopara viticola, in the data set with Puccinia recondita and in the data set on Phytophthora infestans [3] were 84%, 75% and 99%, respectively. The LogP in data set [2] is 4.19 [a].
On to `Cn1c(/C(=N\OCc2cccc(N(C(=O)Oc3ccc(F)cc3)C(=O)Oc3ccc(F)cc3)n2)c2ccccc2)noc1=O` [Example 330], for which the Eff. % in data set [4] worked out at 83%. In data set [2], the LogP was 4.2 [a].
Consider `Cn1c(/C(=N\OCc2cccc(NC(=O)CCc3ccccc3)n2)c2ccccc2)noc1=O` [Example 347], for which the Eff. % in the data set with Phytophthora infestans [1] came out at 92%; in the data set with Plasmopara viticola it was 100%; with Phytophthora infestans [3] it was 100%. Further, in data set [2], the LogP was 3.78 [a].
Regarding `Cn1c(/C(=N\OCc2cccc(NC(=O)OC3CCCCC3)n2)c2ccc(F)cc2)noc1=O` [Example 351], the Eff. % was determined as 75% with Puccinia recondita and 93% in the data set with Phytophthora infestans [3]. Also, the LogP in data set [2] is 4.54 [a].
Regarding `C#CCCC(C)OC(=O)Nc1cccc(CO/N=C(/c2ccccc2)c2noc(=O)n2C)n1` (stereo not drawn) [Example 395], the Eff. % in the data set on Plasmopara viticola amounted to 93%; in the data set on Puccinia recondita, 72%; with Phytophthora infestans [3], 99%. The LogP in data set [2] was 3.8 [a].
Turning to `C#CCCOC(=O)Nc1cccc(CO/N=C(/c2ccccc2)c2noc(=O)n2CC=C)n1` [Example 405], the Eff. % in the data set on Phytophthora infestans [1] was determined as 95%; in the data set on Plasmopara viticola it was 85%. Further, the LogP in data set [2] was 3.61 [a].
